13 compounds from EP0115820A2, “Cephalosporin derivatives and process for their preparation” (Kaken Pharmaceutical Co., Ltd., priority 1983, dated 1984) can be followed below.

What all share (test): Minimum inhibitory concentration (MIC)
Type in all cases: cell-based

For experiment [1], the system named is Pseudomonas aeruginosa E-2. As to conditions: E2; Pseudomonas aeruginosa E-2; bacterial suspension 10^6 cells/ml; sodium salts tested; read-out: Minimum inhibitory concentration. From the text: (§1) The cephalosporin derivatives of the present invention are novel substances, and the antimicrobial activities of their sodium salts are shown by the minimum inhibitory concentrations (MIC, µg/ml) in Table 1, as compared with a typical known cephalosporin compound.

The test system of experiment [2] is Escherichia coli NIHJ JC-2. The note with it: NIHJJC2; Escherichia coli NIHJ JC-2; bacterial suspension 10^6 cells/ml; sodium salts tested; read-out: Minimum inhibitory concentration.
Description: as §1

Experiment [3] has as its system Klebsiella pneumoniae No. 42. The note with it: Klebsiella pneumoniae No. 42; bacterial suspension 10^6 cells/ml; sodium salts tested; read-out: Minimum inhibitory concentration.
Description: as §1

Experiment [4] deals with Staphylococcus aureus 209 P JC-1. As to conditions: 209PJC1; Staphylococcus aureus 209 P JC-1; bacterial suspension 10^6 cells/ml; sodium salts tested; read-out: Minimum inhibitory concentration.
Description: as §1

Experiment [5] has as its system Pseudomonas aeruginosa Y-1. The note with it: Y1; Pseudomonas aeruginosa Y-1; bacterial suspension 10^6 cells/ml; sodium salts tested; read-out: Minimum inhibitory concentration.
Description: as §1

Experiment [6] deals with Pseudomonas aeruginosa K-13. The note with it: K13; Pseudomonas aeruginosa K-13; bacterial suspension 10^6 cells/ml; sodium salts tested; read-out: Minimum inhibitory concentration.
Description: as §1

The subject of a further experiment is Proteus vulgaris GN-76. As to conditions: GN76; Proteus vulgaris GN-76; bacterial suspension 10^6 cells/ml; sodium salts tested; read-out: Minimum inhibitory concentration.
Description: as §1

Experiment [7] concerns Serratia marcescens No. 16-2. As to conditions: NO.162; Serratia marcescens No. 16-2; bacterial suspension 10^6 cells/ml; sodium salts tested; read-out: Minimum inhibitory concentration.
Description: as §1

Turning to `CC(=O)Oc1ccc(C(=O)NC(C(=O)N[C@@H]2C(=O)N3C(C(=O)O)=C(CSc4nnnn4C)CS[C@H]23)c2csc(N)n2)cc1OC(C)=O` (mixture of isomers) [Example 1, 7β-[DL-2-(3,4-diacetoxybenzoylamino)-2-(2-aminothiazol-4-yl)acetamido]-3-(1-methyl-1H-tetrazol-5-yl-thiomethyl)-3-cephem-4-carboxylic acid], the MIC in experiment [1] was 0.2 mg/L; in experiment [2], 0.2 mg/L; in experiment [3] it was 0.1 mg/L; in experiment [4], 0.78 mg/L; in experiment [5], 0.05 mg/L; in experiment [6] it was 0.2 mg/L. In addition, the MIC came out at 0.39 mg/L in the experiment with Proteus vulgaris GN-76 and 6.25 mg/L in experiment [7].

In the case of `Cn1nnnc1SCC1=C(C(=O)O)N2C(=O)[C@@H](NC(=O)C(NC(=O)c3ccc(O)c(O)c3)c3csc(N)n3)[C@H]2SC1` (mixture of isomers) [Example 2, 7β-[DL-2-(3,4-dihydroxybenzoylamino)-2-(2-aminothiazol-4-yl)acetamido]-3-(1-methyl-1H-tetrazol-5-yl-thiomethyl)-3-cephem-4-carboxylic acid], the MIC was determined as 0.39 mg/L in experiment [1]; 0.78 mg/L in experiment [2]; 0.2 mg/L in experiment [3]; 0.39 mg/L in experiment [4]; 0.2 mg/L in experiment [5]; 0.1 mg/L in experiment [6]. Also, the MIC with Proteus vulgaris GN-76 worked out at 6.25 mg/L; in experiment [7] it was 100 mg/L.

In the case of `CC(=O)Oc1cc(C(=O)NC(C(=O)N[C@@H]2C(=O)N3C(C(=O)O)=C(CSc4nnnn4C)CS[C@H]23)c2csc(N)n2)cc(OC(C)=O)c1OC(C)=O` (mixture of isomers) [Example 3, 7β-[DL-2-(3,4,5-triacetoxybenzoylamino)-2-(2-aminothiazol-4-yl)acetamidol-3-(l-methyl-lH-tetrazol-5-yl-thiomethyl)-3-cephem-4-carboxylic acid], the MIC was 0.2 mg/L in experiment [1]; 0.78 mg/L in experiment [2]; below 0.05 mg/L in experiment [3]; 0.78 mg/L in experiment [4]; 0.1 mg/L in experiment [5]; 0.2 mg/L in experiment [6]. Also, the MIC with Proteus vulgaris GN-76 came out at 0.39 mg/L; in experiment [7] it was 0.05 mg/L.

For the compound `CC(=O)Oc1cccc(C(=O)NC(C(=O)N[C@@H]2C(=O)N3C(C(=O)O)=C(CSc4nnnn4C)CS[C@H]23)c2csc(N)n2)c1OC(C)=O` (mixture of isomers) [Example 4, 7β-[DL-2-(2,3-diacetoxybenzoylamino)-2-(2-aminothiazol-4-yl)acetamidol-3-(l-methyl-lH-tetrazol-5-yl-thiomethyl)-3-cephem-4-carboxylic acid], the MIC in experiment [1] is 1.56 mg/L; in experiment [2] it was 3.12 mg/L; in experiment [3] it was 1.56 mg/L; in experiment [4], 1.56 mg/L; in experiment [5], 0.78 mg/L; in experiment [6], 0.39 mg/L. In addition, the MIC in the experiment on Proteus vulgaris GN-76 came to 3.12 mg/L; in experiment [7], 200 mg/L.

For the compound `CCOC(=O)Oc1ccc(C(=O)NC(C(=O)N[C@@H]2C(=O)N3C(C(=O)O)=C(CSc4nnnn4C)CS[C@H]23)c2csc(N)n2)cc1OC(=O)OCC` (mixture of isomers) [Example 5, 7β-[DL-2-(3,4-diethoxycarbonyloxy-benzoylamino)-2-(2-aminothiazol-4-yl)acetamido]-3-(l-methyl-lH-tetrazol-5-yl-thiomethyl)-3-cephem-4-carboxylic acid], the MIC in experiment [1] is 0.39 mg/L; in experiment [2] it was 0.78 mg/L; in experiment [3] it was 0.2 mg/L; in experiment [4] it was 0.39 mg/L; in experiment [5], 0.1 mg/L; in experiment [6] it was 0.2 mg/L. The MIC came out at 6.25 mg/L in the experiment on Proteus vulgaris GN-76 and 50 mg/L in experiment [7].

Regarding `CO[C@@]1(NC(=O)C(NC(=O)c2ccc(OC(C)=O)c(OC(C)=O)c2)c2csc(N)n2)C(=O)N2C(C(=O)O)=C(COC(C)=O)CS[C@@H]21` (mixture of isomers) [Example 6, 7α-methoxy-7β-[DL-2-(3,4-diacetoxy-benzoylamino)-2-(2-aminothiazol-4-yl)acetamido]-cephalosporic acid], the MIC in experiment [1] is 0.78 mg/L; in experiment [2] it was 3.12 mg/L; in experiment [3], 0.39 mg/L; in experiment [4], 1.56 mg/L; in experiment [5] it was 0.78 mg/L; in experiment [6] it was 1.56 mg/L. Further, the MIC came to 12.5 mg/L with Proteus vulgaris GN-76 and 6.25 mg/L in experiment [7].

`CO[C@@]1(NC(=O)C(NC(=O)c2cc(OC(C)=O)c(OC(C)=O)c(OC(C)=O)c2)c2csc(N)n2)C(=O)N2C(C(=O)O)=C(COC(C)=O)CS[C@@H]21` (mixture of isomers) [Example 7, 7α-methoxy-7β-[DL-2-(3,4,5-triacetoxy-benzoylamino)-2-(2-aminothiazol-4-yl)acetamido]-cephalosporic acid]: the MIC in experiment [1] was 0.78 mg/L; in experiment [2], 12.5 mg/L; in experiment [3], 1.56 mg/L; in experiment [4] it was 6.25 mg/L; in experiment [5], 0.78 mg/L; in experiment [6], 1.56 mg/L. Also, the values for the MIC (in the experiment on Proteus vulgaris GN-76; in experiment [7]) were 12.5 mg/L and 50 mg/L, respectively.

Regarding `CO[C@@]1(NC(=O)C(NC(=O)c2cccc(OC(C)=O)c2OC(C)=O)c2csc(N)n2)C(=O)N2C(C(=O)O)=C(COC(C)=O)CS[C@@H]21` (mixture of isomers) [Example 8, 7α-methoxy-7β-(DL-2-(2,3-diacetoxy-benzoylamino)-2-(2-aminothiazol-4-yl)acetamido]-cephalosporic acid], the MIC in experiment [1] was 1.56 mg/L; in experiment [2], 25 mg/L; in experiment [3], 0.78 mg/L; in experiment [4], 6.25 mg/L; in experiment [5], 3.12 mg/L; in experiment [6], 6.25 mg/L. Moreover, the MIC (in the experiment on Proteus vulgaris GN-76; in experiment [7]) was 3.12 mg/L in each case.

As for `CO[C@@]1(NC(=O)C(NC(=O)c2ccc(O)c(O)c2)c2csc(N)n2)C(=O)N2C(C(=O)O)=C(COC(C)=O)CS[C@@H]21` (mixture of isomers) [Example 9, 7α-methoxy-7β-[DL-2-(3,4-dihydroxy-benzoylamino)-2-(2-aminothiazol-4-yl)acetamidolcephalosporic acid], the MIC in experiment [1] was 0.39 mg/L; in experiment [2], 12.5 mg/L; in experiment [3], 0.39 mg/L; in experiment [4] it was 1.56 mg/L; in experiment [5], 0.39 mg/L; in experiment [6] it was 0.78 mg/L. Besides, the MIC (with Proteus vulgaris GN-76; in experiment [7]) was 3.12 mg/L in each case.

Take `CO[C@@]1(NC(=O)C(NC(=O)c2ccc(OC(C)=O)c(OC(C)=O)c2)c2csc(N)n2)C(=O)N2C(C(=O)O)=C(CSc3nnnn3C)CS[C@@H]21` (mixture of isomers) [Example 10, 7α-methoxy-7β-[DL-2-(3,4-diacetoxy-benzoylamino)-2-(2-aminothiazol-4-yl)acetamidol-3-(1-methyl-lH-tetrazol-5-yl-thiomethyl)-3-cephem-4-carboxylic acid]: the MIC in experiment [1] stood at 0.2 mg/L; in experiment [2], 6.25 mg/L; in experiment [3], 0.2 mg/L; in experiment [4], 0.78 mg/L; in experiment [5], 0.2 mg/L; in experiment [6], 0.2 mg/L. Moreover, the MIC with Proteus vulgaris GN-76 turned out to be 1.56 mg/L; in experiment [7] it was 3.12 mg/L.

As for `CO[C@@]1(NC(=O)C(NC(=O)c2cc(OC(C)=O)c(OC(C)=O)c(OC(C)=O)c2)c2csc(N)n2)C(=O)N2C(C(=O)O)=C(CSc3nnnn3C)CS[C@@H]21` (mixture of isomers) [Example 11, 7α-methoxy-7β-[DL-2-(3,4,5-triacetoxy-benzoylamino)-2-(2-aminothiazol-4-yl)acetamido]-3-(1-methyl-lH-tetrazol-5-yl-thiomethyl)-3-cephem-4-carboxylic acid], the MIC in experiment [1] amounted to 0.39 mg/L; in experiment [2], 6.25 mg/L; in experiment [3] it was 0.39 mg/L; in experiment [4], 6.25 mg/L; in experiment [5] it was 0.78 mg/L; in experiment [6], 0.78 mg/L. The MIC in the experiment on Proteus vulgaris GN-76 was 3.12 mg/L; in experiment [7] it was 6.25 mg/L.

Turning to `CO[C@@]1(NC(=O)C(NC(=O)c2ccc(O)c(O)c2)c2csc(N)n2)C(=O)N2C(C(=O)O)=C(CSc3nnnn3C)CS[C@@H]21` (mixture of isomers) [Example 12, 7α-methoxy-7β-[DL-2-(3,4-dihydroxy-benzoylamino)-2-(2-aminothiazol-4-yl)acetamido]-3-(l-methyl-lH-tetrazol-5-yl-thiomethyl)-3-cephem-4-carboxylic acid], the MIC in experiment [1] was found to be 0.2 mg/L; in experiment [2], 6.25 mg/L; in experiment [3], 0.1 mg/L; in experiment [4], 1.56 mg/L; in experiment [5], 0.2 mg/L; in experiment [6] it was 0.39 mg/L. Further, the MIC was found to be 1.56 mg/L in the experiment on Proteus vulgaris GN-76 and 0.78 mg/L in experiment [7].

In the case of `CCOC(=O)Oc1ccc(C(=O)NC(C(=O)N[C@]2(OC)C(=O)N3C(C(=O)O)=C(COC(C)=O)CS[C@@H]32)c2csc(N)n2)cc1OC(=O)OCC` (mixture of isomers) [Example 13, 7α -methoxy-7β-[DL-2-(3,4-diethoxy-carbonyloxybenzoylamino)-2-(2-aminothiazol-4-yl)-acetamido]cephalosporic acid], the MIC was found to be 0.78 mg/L in experiment [1]; 12.5 mg/L in experiment [2]; 0.39 mg/L in experiment [3]; 1.56 mg/L in experiment [4]; 0.78 mg/L in experiment [5]; 1.56 mg/L in experiment [6]. Besides, the MIC was 6.25 mg/L in the experiment with Proteus vulgaris GN-76 and 3.12 mg/L in experiment [7].
